From PubChem BioAssay AID200 (DTP/NCI, 2004)
Values joined by “and” are separate entries in the source; they are usually repeats but may differ in a detail not shown here. Equal values may be shown once. Toxic doses and inconclusive results are not listed.

Tested on: B6C3F1 mice, B16 melanoma ip, median survival T/C
Assay: NCI In Vivo Anticancer Drug Screen. Data for tumor model B16 Melanoma (intraperitoneal) in B6C3F1 mice
Details: endpoint: median survival time, higher = longer survival
How it was run: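 Readout: survival or tumor size in treated mice relative to vehicle controls (T/C). Model uses transplantable tumors grown in mice.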

Structure (SMILES): COC(=O)NC1C(C)OC(OC2C/C=C(/C)C3C=CC4C(OC5CC(OC6CCC(OC7CC(O)C(OC8CCC(O)C(C)O8)C(C)O7)C(C)O6)C(OC(C)=O)C(C)O5)C(C)CC(C)C4C3(C)/C(O)=C3/C(=O)OC4(CC(C=O)=CC(O)C4/C=C\2C)C3=O)CC1(C)[N+](=O)[O-] (stereo not drawn)
- T/C (dose: 1.25 mg/kg/injection, schedule: Q01DX009 (ip), vehicle: water): 114 % of control
- T/C (dose: 1.69 mg/kg/injection, schedule: Q03HX024 (ip), vehicle: water): 165 % of control
- T/C (dose: 2.4 mg/kg/injection, schedule: Q01DX005 (ip), vehicle: water): 124 % of control
- T/C (dose: 2.43 mg/kg/injection, schedule: Q01DX005 (iv), vehicle: water): 110 % of control
- T/C (dose: 2.5 mg/kg/injection, schedule: Q01DX009 (sc), vehicle: water): 98 % of control
- T/C (dose: 2.53 mg/kg/injection, schedule: Q03HX024 (ip), vehicle: water): 186 % of control
- T/C (dose: 3.0 mg/kg/injection, schedule: Q01DX005 (iv), vehicle: water): 99 % of control
- T/C (dose: 3.4 mg/kg/injection, schedule: Q03HX008 (ip), vehicle: water): 161 % of control
- T/C (dose: 3.6 mg/kg/injection, schedule: Q01DX005 (ip), vehicle: water): 160 % of control
- T/C (dose: 3.63 mg/kg/injection, schedule: Q01DX005 (iv), vehicle: water): 114 % of control
- T/C (dose: 3.77 mg/kg/injection, schedule: Q03HX024 (ip), vehicle: water): 173 % of control
- T/C (dose: 4.5 mg/kg/injection, schedule: Q01DX005 (iv), vehicle: water): 105 % of control
- T/C (dose: 4.5 mg/kg/injection, schedule: Q01DX009 (ip), vehicle: water): 161 % of control
- T/C (dose: 5.0 mg/kg/injection, schedule: Q01DX009 (sc), vehicle: water): 97 % of control
- T/C (dose: 5.08 mg/kg/injection, schedule: Q03HX008 (ip), vehicle: water): 171 % of control
- T/C (dose: 5.3 mg/kg/injection, schedule: Q01DX005 (ip), vehicle: water): 177 % of control
- T/C (dose: 5.4 mg/kg/injection, schedule: Q01DX005 (ip), vehicle: water): 165 % of control
- T/C (dose: 5.41 mg/kg/injection, schedule: Q01DX005 (iv), vehicle: water): 108 % of control
- T/C (dose: 5.63 mg/kg/injection, schedule: Q03HX024 (ip), vehicle: water): 203 % of control
- T/C (dose: 6.0 mg/kg/injection, schedule: Q01DX009 (sc), vehicle: water): 101 % of control
- T/C (dose: 6.7 mg/kg/injection, schedule: Q01DX005 (iv), vehicle: water): 105 % of control
- T/C (dose: 6.7 mg/kg/injection, schedule: Q01DX009 (ip), vehicle: water): 165 % of control
- T/C (dose: 6.74 mg/kg/injection, schedule: Q01DX009 (oral), vehicle: water): 98 % of control
- T/C (dose: 8.0 mg/kg/injection, schedule: Q01DX005 (ip), vehicle: water): 153 % of control and 159 % of control
- T/C (dose: 8.0 mg/kg/injection, schedule: Q01DX005 (iv), vehicle: water): 108 % of control and 120 % of control
- T/C (dose: 8.08 mg/kg/injection, schedule: Q01DX005 (iv), vehicle: water): 98 % of control
- T/C (dose: 8.1 mg/kg/injection, schedule: Q01DX005 (ip), vehicle: water): 175 % of control
- T/C (dose: 9.0 mg/kg/injection, schedule: Q01DX009 (sc), vehicle: water): 109 % of control
- T/C (dose: 9.1 mg/kg/injection, schedule: Q04DX003 (ip), vehicle: water): 177 % of control
- T/C (dose: 10.0 mg/kg/injection, schedule: Q01DX005 (iv), vehicle: water): 103 % of control
- T/C (dose: 10.0 mg/kg/injection, schedule: Q01DX009 (sc), vehicle: water): 100 % of control
- T/C (dose: 10.05 mg/kg/injection, schedule: Q01DX009 (oral), vehicle: water): 102 % of control
- T/C (dose: 12.0 mg/kg/injection, schedule: Q01DX005 (ip), vehicle: water): 171 % of control and 197 % of control
- T/C (dose: 12.0 mg/kg/injection, schedule: Q01DX005 (iv), vehicle: water): 108 % of control and 105 % of control
- T/C (dose: 12.06 mg/kg/injection, schedule: Q01DX001 (iv), vehicle: water): 116 % of control
- T/C (dose: 12.1 mg/kg/injection, schedule: Q01DX005 (iv), vehicle: water): 110 % of control
- T/C (dose: 13.0 mg/kg/injection, schedule: Q01DX005 (ip), vehicle: water): 162 % of control
- T/C (dose: 13.0 mg/kg/injection, schedule: Q01DX009 (sc), vehicle: water): 101 % of control
- T/C (dose: 13.5 mg/kg/injection, schedule: Q04DX003 (ip), vehicle: water): 165 % of control
- T/C (dose: 15.0 mg/kg/injection, schedule: Q01DX005 (iv), vehicle: water): 110 % of control
- T/C (dose: 15.0 mg/kg/injection, schedule: Q01DX009 (ip), vehicle: water): 180 % of control
- T/C (dose: 15.0 mg/kg/injection, schedule: Q01DX009 (oral), vehicle: water): 103 % of control
- T/C (dose: 18.0 mg/kg/injection, schedule: Q01DX001 (ip), vehicle: water): 191 % of control
- T/C (dose: 18.0 mg/kg/injection, schedule: Q01DX005 (ip), vehicle: water): 112 % of control
- T/C (dose: 18.0 mg/kg/injection, schedule: Q01DX005 (iv), vehicle: water): 110 % of control and 97 % of control and 104 % of control
- T/C (dose: 18.1 mg/kg/injection, schedule: Q01DX005 (ip), vehicle: water): 159 % of control
- T/C (dose: 20.0 mg/kg/injection, schedule: Q01DX005 (ip), vehicle: water): 121 % of control
- T/C (dose: 20.0 mg/kg/injection, schedule: Q01DX009 (sc), vehicle: water): 95 % of control and 103 % of control
- T/C (dose: 20.2 mg/kg/injection, schedule: Q04DX003 (ip), vehicle: water): 178 % of control
- T/C (dose: 22.39 mg/kg/injection, schedule: Q01DX009 (oral), vehicle: water): 96 % of control
- T/C (dose: 27.0 mg/kg/injection, schedule: Q01DX001 (ip), vehicle: water): 203 % of control
- T/C (dose: 27.0 mg/kg/injection, schedule: Q01DX001 (iv), vehicle: water): 108 % of control
- T/C (dose: 27.0 mg/kg/injection, schedule: Q01DX005 (iv), vehicle: water): 112 % of control and 106 % of control
- T/C (dose: 30.0 mg/kg/injection, schedule: Q01DX009 (sc), vehicle: water): 97 % of control
- T/C (dose: 33.41 mg/kg/injection, schedule: Q01DX009 (oral), vehicle: water): 101 % of control
- T/C (dose: 40.5 mg/kg/injection, schedule: Q01DX001 (ip), vehicle: water): 226 % of control
- T/C (dose: 40.5 mg/kg/injection, schedule: Q01DX001 (iv), vehicle: water): 121 % of control
- T/C (dose: 49.87 mg/kg/injection, schedule: Q01DX009 (oral), vehicle: water): 100 % of control

Structure (SMILES): Ic1ccc2c(c1)N(c1ccccc1)c1cc(N=c3ccc4nc5ccc(I)cc5n(-c5ccccc5)c-4c3)ccc1N2
- T/C (dose: 100.0 mg/kg/injection, schedule: Q01DX009 (ip), vehicle: Klucel (hydroxypropylcellulose) (HPC)): 91 % of control
- T/C (dose: 200.0 mg/kg/injection, schedule: Q01DX009 (ip), vehicle: Klucel (hydroxypropylcellulose) (HPC)): 94 % of control
- T/C (dose: 400.0 mg/kg/injection, schedule: Q01DX009 (ip), vehicle: Klucel (hydroxypropylcellulose) (HPC)): 91 % of control

Structure (SMILES): O=C1C=CC(=O)N1c1ccc(Cl)cc1
- T/C (dose: 0.31 mg/kg/injection, schedule: Q01DX009 (ip), vehicle: Klucel (hydroxypropylcellulose) (HPC)): 100 % of control and 102 % of control
- T/C (dose: 0.63 mg/kg/injection, schedule: Q01DX009 (ip), vehicle: Klucel (hydroxypropylcellulose) (HPC)): 111 % of control and 86 % of control
- T/C (dose: 1.25 mg/kg/injection, schedule: Q01DX009 (ip), vehicle: Klucel (hydroxypropylcellulose) (HPC)): 96 % of control and 100 % of control
- T/C (dose: 2.5 mg/kg/injection, schedule: Q01DX009 (ip), vehicle: Klucel (hydroxypropylcellulose) (HPC)): 100 % of control

Structure (SMILES): O=C1CCCCCC2=NC12 (stereo not drawn)
- T/C (dose: 6.25 mg/kg/injection, schedule: Q01DX009 (ip), vehicle: Klucel (hydroxypropylcellulose) (HPC)): 95 % of control
- T/C (dose: 12.5 mg/kg/injection, schedule: Q01DX009 (ip), vehicle: Klucel (hydroxypropylcellulose) (HPC)): 91 % of control
- T/C (dose: 25.0 mg/kg/injection, schedule: Q01DX009 (ip), vehicle: Klucel (hydroxypropylcellulose) (HPC)): 87 % of control
- T/C (dose: 50.0 mg/kg/injection, schedule: Q01DX009 (ip), vehicle: Klucel (hydroxypropylcellulose) (HPC)): 98 % of control

Structure (SMILES): O=C(NC(Cc1ccc(I)cc1)C(=O)O)c1ccc(Br)cc1 (stereo not drawn)
- T/C (dose: 25.0 mg/kg/injection, schedule: Q01DX009 (ip), vehicle: sodium bicarbonate): 96 % of control
- T/C (dose: 50.0 mg/kg/injection, schedule: Q01DX009 (ip), vehicle: sodium bicarbonate): 104 % of control
- T/C (dose: 100.0 mg/kg/injection, schedule: Q01DX009 (ip), vehicle: sodium bicarbonate): 101 % of control
- T/C (dose: 200.0 mg/kg/injection, schedule: Q01DX009 (ip), vehicle: sodium bicarbonate): 97 % of control

Structure (SMILES): CCCCNC(C)[C@]1(O)Cc2c(O)c3c(c(O)c2[C@@H](OC2CC(N)C(O)C(C)O2)C1)C(=O)c1c(OC)cccc1C3=O (stereo partly drawn)
- T/C (dose: 0.75 mg/kg/injection, schedule: Q01DX009 (ip), vehicle: saline): 162 % of control and 163 % of control
- T/C (dose: 1.5 mg/kg/injection, schedule: Q01DX009 (ip), vehicle: saline): 211 % of control and 232 % of control
- T/C (dose: 3.0 mg/kg/injection, schedule: Q01DX009 (ip), vehicle: saline): 235 % of control and 333 % of control
- T/C (dose: 6.0 mg/kg/injection, schedule: Q01DX009 (ip), vehicle: saline): 229 % of control and 95 % of control

Structure (SMILES): CCc1nc(N)nc(N)c1-c1ccc(Cl)c(Cl)c1.[Cl][Pd][Cl]
- T/C (dose: 3.12 mg/kg/injection, schedule: Q01DX009 (ip), vehicle: saline): 114 % of control
